Results from patent publication US20210228545A1, “METHODS OF TREATING CONDITIONS RELATED TO THE S1P1 RECEPTOR” (Arena Pharmaceuticals, Inc., priority 2018, published 2021).

Molecular target: T1, OCT2 (Homo sapiens, UniProt O15244)
T1 construct: expressed in transfected cells; host or cells: HEK293
T1 sequence (O15244 1-555): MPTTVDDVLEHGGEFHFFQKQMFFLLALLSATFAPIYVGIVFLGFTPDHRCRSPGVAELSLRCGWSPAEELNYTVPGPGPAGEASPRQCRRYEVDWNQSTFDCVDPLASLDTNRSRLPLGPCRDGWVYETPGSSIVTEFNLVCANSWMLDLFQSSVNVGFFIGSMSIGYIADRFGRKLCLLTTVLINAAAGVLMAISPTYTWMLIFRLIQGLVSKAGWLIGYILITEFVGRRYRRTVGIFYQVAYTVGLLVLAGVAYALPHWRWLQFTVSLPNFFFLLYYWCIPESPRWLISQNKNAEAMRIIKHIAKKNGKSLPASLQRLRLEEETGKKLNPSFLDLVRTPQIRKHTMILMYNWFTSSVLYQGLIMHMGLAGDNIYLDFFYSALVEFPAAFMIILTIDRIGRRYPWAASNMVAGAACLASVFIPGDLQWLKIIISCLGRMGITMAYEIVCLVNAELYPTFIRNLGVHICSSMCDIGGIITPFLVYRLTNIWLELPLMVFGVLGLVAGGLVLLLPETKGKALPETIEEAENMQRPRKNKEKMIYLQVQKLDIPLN
Test: Transporter substrate evaluation, HEK293 cells
Assay type: in vitro ADME
Settings: 1 and 10 μM

O=C(O)C[C@H]1CCc2c1[nH]c1ccc(OCc3ccc(C4CCCC4)c(C(F)(F)F)c3)cc21 [Compound 1, (R)-2-(7-(4-cyclopentyl-3-(trifluoromethyl)benzyloxy)-1,2,3,4-tetrahydrocyclopenta[b]indol-3-yl)acetic acid]
Potential substrate of OCT2 (HEK293 cells): not a substrate of OCT2 and not a substrate and No
Uptake ratio into OCT2-expressing cells (absence and presence of quinidine (300 μM)): below two
